Like-named read-outs stand apart in the source and are kept apart here.
Tests used:
[1] = tested on: Onchocerca gutturosa adult male worms; experiment: O. gutturosa adult male worm 5-day motility assay
[2] = tested on: Onchocerca gutturosa adult male worms; experiment: O. gutturosa adult worm MTT/formazan viability assay; details: 120 h
[3] = tested on: Onchocerca lienalis microfilariae; experiment: O. lienalis microfilariae 5-day motility assay; details: 120 h
Brugia pahangi [4] = details: cited from earlier work
Brugia pahangi [5] = details: 100L3 (SC), cats, SC 100-400mg/kg x1, patent phase, necropsy 46-51 days p.t.; ref Denham 1979 (Ref. 4); cited from earlier work
Acanthocheilonema viteae = tested on: Acanthocheilonema viteae; set-up: method as in Denham 1980 (Ref. 6); details: 80L3, jirds, SC 100mg/kg 5 cons. days, ref Denham 1980 (Ref. 6), cited from earlier work
Brugia pahangi [6] = tested on: Brugia pahangi; set-up: method as in Devaney 1985 (Ref. 8); details: 50L3, balb/c, SC 10 or 50 mg/kg 5 cons. days, 4 days p.i., necropsy 3-4 weeks p.t.; ref Devaney 1985 (Ref. 8); cited from earlier work
[7] = tested on: Acanthocheilonema viteae / Brugia pahangi; set-up: method as in Court 1988 (Ref. 10); details: 15Ad A.v. (SC) +15Ad B.p. (IP), jirds, 5 days p.i., necropsy 5 weeks p.t., ref Court 1988 (Ref. 10), cited from earlier work
Litomosoides sigmodontis [8] = tested on: Litomosoides sigmodontis; set-up: method as in Reddy 1983 (Ref. 15); details: L3 (mite), Mastomys natalensis, patent phase, necropsy 43 days p.t., ref Reddy 1983 (Ref. 15), cited from earlier work
Brugia pahangi [9] = tested on: Brugia pahangi; set-up: method as in Reddy 1983 (Ref. 15); details: L3 (SC), Mastomys natalensis, patent phase, necropsy 43 days p.t., ref Reddy 1983 (Ref. 15), cited from earlier work
Litomosoides sigmodontis [10] = experiment: Patent L. sigmodontis infection in jirds (adult worms, microfilaremia, embryogenesis); details: jirds, SC 2 mg/kg QD for 5 days

Structure (SMILES): COC(=O)Nc1nc2cc(C(=O)c3ccc(F)cc3)ccc2[nH]1 [flubendazole]
- Motility Reduction (%) ([1]; 1.25 x 10^-5 M, 24 h): 10%
- Motility Reduction (%) ([1]; 1.25 x 10^-5 M, 48 h): 12%
- Motility Reduction (%) ([1]; 1.25 x 10^-5 M, 72 h): 33%
- Motility Reduction (%) ([1]; 1.25 x 10^-5 M, 96 h): 44%
- Motility Reduction (%) ([1]; 1.25 x 10^-5 M, 120 h): 51%
- Motility Reduction (%) ([1]; 3.1 x 10^-6 M, 24 h): 4%
- Motility Reduction (%) ([1]; 3.1 x 10^-6 M, 48 h): 5%
- Motility Reduction (%) ([1]; 3.1 x 10^-6 M, 72 h): 16%
- Motility Reduction (%) ([1]; 3.1 x 10^-6 M, 96 h): 38%
- Motility Reduction (%) ([1]; 3.1 x 10^-6 M, 120 h): 40%
- Motility Reduction (%) ([1]; 5.0 x 10^-5 M, 24 h): 23%
- Motility Reduction (%) ([1]; 5.0 x 10^-5 M, 48 h): 22%
- Motility Reduction (%) ([1]; 5.0 x 10^-5 M, 72 h): 36%
- Motility Reduction (%) ([1]; 5.0 x 10^-5 M, 96 h): 38%
- Motility Reduction (%) ([1]; 5.0 x 10^-5 M, 120 h): 54%
- Motility Reduction (%) ([1]; 7.8 x 10^-7 M, 24 h): 6%
- Motility Reduction (%) ([1]; 7.8 x 10^-7 M, 48 h): 9%
- Motility Reduction (%) ([1]; 7.8 x 10^-7 M, 72 h): 13%
- Motility Reduction (%) ([1]; 7.8 x 10^-7 M, 96 h): 33%
- Motility Reduction (%) ([1]; 7.8 x 10^-7 M, 120 h): 26%
- MTT Reduction (%) ([2]; 1.25 x 10^-5 M): 2%
- MTT Reduction (%) ([2]; 3.1 x 10^-6 M): 3%
- MTT Reduction (%) ([2]; 5.0 x 10^-5 M): 20%
- MTT Reduction (%) ([2]; 7.8 x 10^-7 M): 3%
- activity against microfilariae compared to oxfendazole [3]: even less active
- Reduction of worm burden (Brugia pahangi [4]; 15Ad (IP), jirds, SC 0.7mg/kg 5 cons. days, ref Denham 1979 (Ref. 4)): 40%
- Reduction of worm burden (Brugia pahangi [4]; 15Ad (IP), jirds, SC 3.1mg/kg x1, ref Denham 1979 (Ref. 4)): 23%
- Reduction of worm burden (Brugia pahangi [4]; 15Ad (IP), jirds, SC 5mg/kg 5 cons. days, 4 days p.i., necropsy 5 weeks p.t., ref Surin 1990 (Ref. 11)): 100%
- Reduction of worm burden (Brugia pahangi [4]; 15Ad (IP), jirds, SC 6.3-12.5 mg/kg x1, ref Denham 1979 (Ref. 4)): 70-80%
- Reduction of worm burden (Brugia pahangi [4]; 15Ad (IP), jirds, SC 10-50-100mg/ml 5 cons. days, ref Denham 1979 (Ref. 4)): 96-100%
- Reduction of worm burden (Brugia pahangi [4]; 15Ad (IP), jirds, SC 25-200mg/kg x1, ref Denham 1979 (Ref. 4)): >98%
- Reduction of worm burden (Brugia pahangi [4]; 50L3 (IP), jirds, SC 5mg/kg 5 cons. days, 70 days p.i., necropsy 5 weeks p.t., ref Surin 1990 (Ref. 11)): 98.5%
- Reduction of worm burden (Brugia pahangi [4]; 50L3 (IP), jirds, SC 25mg/kg 5 cons. days, 70 days p.i., necropsy 5 weeks p.t., ref Surin 1990 (Ref. 11)): 100%
- Reduction of worm burden (Brugia pahangi [4]; 50L3 (IP), jirds, SC 25mg/kg x1, prepatent phase, necropsy 3-9 days p.t., ref Denham 1979 (Ref. 4)): no reduction
- Reduction of worm burden (Brugia pahangi [4]; 50L3 (IP), jirds, SC 25mg/kg x1, prepatent phase, necropsy 12-24 days p.t., ref Denham 1979 (Ref. 4)): 80%
- Reduction of worm burden (Brugia pahangi [4]; 50L3 (IP), jirds, SC 25mg/kg x1, prepatent phase, necropsy 27-36 days p.t., ref Denham 1979 (Ref. 4)): 100%
- Reduction of worm burden (Brugia pahangi [4]; prophylactic, 15Ad (IP), jirds, SC 100mg/kg x1, 2,3,4,5 weeks bef. i., necropsy 35 days pi, ref Denham 1980 (Ref. 1)): 100%
- Reduction of worm burden (Brugia pahangi [4]; prophylactic, 15Ad (IP), jirds, SC 100mg/kg x1, 6,9,12 weeks bef. i., necropsy 35 days pi, ref Denham 1980 (Ref. 1)): 92-100%
- Reduction of worm burden (Brugia pahangi [4]; prophylactic, 15Ad (IP), jirds, SC 100mg/kg x1, 24 weeks bef. i., necropsy 35 days pi, ref Denham 1980 (Ref. 1)): 9%
- Reduction of worm burden (Brugia pahangi [4]; prophylactic, 15Ad (IP), jirds, SC 100mg/kg x1, 2 days bef. i., necropsy 35 days pi, ref Denham 1980 (Ref. 1)): 100%
- Reduction of worm burden (Brugia pahangi [4]; prophylactic, 50L3, jirds, SC 25mg/kg x1, 137 days bef. i., necropsy 9-10 weeks p.t., ref Chusattayanond 1984 (Ref. 2)): 8%
- Reduction of worm burden (Brugia pahangi [5]): 100%
- Reduction of worm burden (Acanthocheilonema viteae; 6 to 10 days p.i., necropsy 73-75 days p.t.): 100%
- Reduction of worm burden (Acanthocheilonema viteae; 42-46 days p.i., necropsy 39-40 days p.t.): 100%
- Reduction of worm burden (Brugia pahangi [6]): 100%
- Reduction of worm burden ([7]; SC 50mg/kg 5 cons. days): 50%
- Reduction of worm burden ([7]; SC 100mg/kg 5 cons. days): 100%
- Reduction of worm burden (Litomosoides sigmodontis [8]; SC 100mg/kg 5 cons. days): 100%
- Reduction of worm burden (Litomosoides sigmodontis [8]; per os 150mg/kg 5 cons. days): 0%
- Reduction of worm burden (Brugia pahangi [9]; SC 100mg/kg 5 cons. days): 100%
- Reduction of worm burden (Brugia pahangi [9]; per os 150mg/kg 5 cons. days): 20%
- adult worms at necropsy (Litomosoides sigmodontis [10]; necropsy 16 weeks post-treatment): no adult worms were recovered
- clearance of microfilariae from peripheral blood (Litomosoides sigmodontis [10]; week 4 after treatment start): all microfilariae were cleared
